Test results: patent publication US20240390301A1, “COMBINATIONS OF PERIPHERAL 5-HT2A RECEPTOR ANTAGONISTS AND CENTRAL 5-HT2A RECEPTOR AGONISTS” (priority 2021, published 2024)
Read-outs that look alike come from different tables or passages of the source.

Key:
in vitro = experiment: in vitro; set-up: fraction unbound at 4 h: dose or concentration left out as unconfirmed; conditions: rat, brain homogenate
Procedure: Various putative peripheral 5-HT2A receptor antagonists were tested for binding to rat brain homogenate via equilibrium dialysis, with the results summarized in Table 7.
Method 1. Rat brain homogenate was thawed in a water bath at room temperature and then incubated at 37° C. for 10 min before use. Aliquots of 50 μL of loading matrix containing test compound (2 μM final incubation concentration) or control compound in triplicate were transferred to a Sample Collection Plate. The samples were matched with opposite blank buffer to obtain a final volume of 100 μL with a volume ratio of matrix: Dialysis Buffer of 1:1 (v:v) in each well. The stop solution (200 ng/mL tolbutamide and 200 ng/ml labetalol in ACN) was immediately added to these T0 samples of test compound and control compound. The plate was sealed and shaken at 800 rpm for 10 min. T0 samples were stored at 2-8° C. pending further processing along with other post-dialysis samples. An aliquot of 100 μL of the loading matrix containing test compound or control compound was transferred to the donor side of each dialysis well in triplicate and 100 μL of the Dialysis Buffer was loaded to the receiver side of the well. Then the plate was rotated at approximately 100 rpm in a humidified incubator with 5% CO2 at 37±1° C. for 4 hours. At the end of the dialysis. aliquots of 50 μL from the buffer side and matrix side of the dialysis device were taken into new 96-well plates (Sample Collection Plates). An equal volume of opposite blank matrix (buffer or matrix) in each sample was added to reach a final volume of 100 μL, with a volume ratio of matrix: Dialysis Buffer of 1:1 (v:v) in each well. All samples were further processed by protein precipitation before LC-MS/MS analysis.
Method 2. Aliquots (200 μL) of test compounds and positive controls at […] in rat brain homogenate (triplicates) were added to the rapid equilibrium dialysis (RED) chamber of dialysis inserts. A 350 μL aliquot of dialysis buffer was added to the buffer chamber of the inserts. After sealing the RED device with an adhesive film, dialysis was conducted at 37° C. with shaking at 100 RPM for 4 hours. Following dialysis, an aliquot of 50 μL was removed from each well (brain homogenate and buffer) and diluted with an equal volume of opposite matrix to nullify the matrix effect. Similarly, buffer was added to recovery and stability samples. An aliquot of 100 μL was used for LC-MS/MS analysis following protein precipitation with ACN containing internal standard.

5-HT2B receptor = biological target: T1, 5-HT2B receptor (Homo sapiens, UniProt P41595); experiment: FLIPR Ca2+ flux functional assay, antagonist activity at 5-HT2B; type: cell-based; conditions: for 5-HT2B % Inh @ Max Dose: at max dose
T1 construct: host or cells: HEK293 (stably transfected)
T1 sequence (P41595 whole entry): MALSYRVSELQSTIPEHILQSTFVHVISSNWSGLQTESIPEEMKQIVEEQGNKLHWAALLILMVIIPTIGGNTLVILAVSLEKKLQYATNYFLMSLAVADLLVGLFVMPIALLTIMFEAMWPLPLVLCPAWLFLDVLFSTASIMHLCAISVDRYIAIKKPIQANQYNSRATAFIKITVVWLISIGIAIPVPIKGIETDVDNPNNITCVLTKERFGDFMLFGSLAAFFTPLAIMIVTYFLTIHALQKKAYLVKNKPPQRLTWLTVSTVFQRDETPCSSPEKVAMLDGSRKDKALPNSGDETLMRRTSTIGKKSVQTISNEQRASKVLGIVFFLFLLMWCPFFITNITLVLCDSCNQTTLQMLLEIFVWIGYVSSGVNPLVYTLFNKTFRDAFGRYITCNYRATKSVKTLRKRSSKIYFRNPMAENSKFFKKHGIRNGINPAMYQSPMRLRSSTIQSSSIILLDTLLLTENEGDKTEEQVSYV
Procedure: Key peripheral 5-HT2A receptors antagonists were tested for antagonist activity at several serotonin (5-HT) receptor subtypes (5-HT2A and 5-HT2B) using Ca^2+ flux functional assays, with the results summarized in Table 3. […] The ability to block peripheral 5-HT2B receptors in addition to 5-HT2A receptors is advantageous in the context of the present disclosure, as such blockade is likely to mitigate the potential cardiac valvulopathy induced by 5-HT2B receptor agonists. This is expected to be a potential side effect of many classical psychedelics, which activate 5-HT2B receptors as a secondary target. Accordingly, xylamidine and BW501C67 are preferred over Compound 14a for use in combination with 5-HT2A receptor agonists that also activate 5-HT2B receptors, since they also block this important off target. When taken together with the binding data presented above, xylamidine and BW501C67 appear to be potent pan-antagonists for 5-HT2-type receptors, whereas Compound 14a is selective for 5-HT2A receptors specifically.
Functional Assays at 5-HT2A and 5-HT2B. Antagonist activity at 5-HT2A and 5-HT2B receptors was determined using a FLIPR Ca^2+ flux assay at WuXi AppTec (Hong Kong) Limited according to their standard protocols. Briefly, stably transfected HEK293 cells expressing the receptor of interest were grown and plated in a 384 well plate and incubated at 37° C. and 5% CO2 overnight. This was combined with a fluorescent dye (Fluo-4 Direct™) to make a final assay concentration of 2.5 mM. Compounds were diluted 1:3.16 for 10 points and 750 nL was added to a 384 well compound plate using ECHO along with 30 μL assay buffer. The fluorescent dye was then added to the assay plate along with assay buffer to a final volume of 40 μL. The cell plate was incubated for 50 min at 37° C. and 5% CO2 and placed into the FLIPR Tetra along with the compound plate. 10 μL of references and compounds were then transferred from the compound plate into the cell plate and the fluorescent signal was read. Next, 10 μL of a 6× solution of 5-carboxamidotryptamine (5-CT) at the calculated EC80 was added and the fluorescent signal read again. Finally, the Max-Min signal was calculated for the runs with and without agonist.

[1] = tested on: DOPR-induced head twitch response (HTR); experiment: Blockade of DOPR-induced head twitch response (HTR) in rats; type: in vivo, Sprague-Dawley rats; conditions: for Attenuation of the HTR to DOPR (significance vs. vehicle): all doses tested, SC, Dunnett's multiple comparison test; for Mean HTR (SEM): 10 min before DOPR 0.32 mg/kg SC, HTRs counted for 20 min
Procedure: FIG. 1 graphically depicts in a bar graph the effect of xylamidine pre-treatment on the HTR induced by DOPR in the rat. The indicated doses of xylamidine or vehicle were administered SC. followed 10 minutes later by DOPR (0.32 mg/kg, SC), and HTRs were counted for 20 minutes immediately after DOPR administration (10-30 min after administration of xylamidine). […] In FIG. 2, the effect of BW501C67 pre-treatment on the HTR induced by DOPR in the rat is depicted graphically in a bar graph. […] FIG. 4 graphically depicts in a bar graph the effect of sarpogrelate pre-treatment on the HTR induced by DOPR in the rat.
Animals. Adult male Sprague-Dawley rats aged 8 weeks (body weight ˜270 g) were used in these experiments. Animals were pair housed under controlled temperatures and 12-hour light/dark cycles (lights on between 07:00-19:00 h), with ad libitum food and water. The protocol was approved by the Eurofins Advinus Institutional Animal Care and Use Committee. This study was carried out in strict accordance with the recommendations in the Guide for the Care and Use of Laboratory Animals of the National Institutes of Health. All efforts were made to minimize suffering.
Drugs and Drug Administration. Test compounds were prepared as described above or commercially obtained. Drugs were dissolved in their respective vehicle solutions (see Table 4) and administered subcutaneously (SC) in a volume of 5 mL/kg (except for the experiment with sarpogrelate, where a volume of […] was used). […] The 5-HT2A receptor agonist DOPR was then administered at 1 dose (0.32 mg/kg, SC, in saline, calculated based on the free base) to all animals 10 min after pretreatment with the test peripheral antagonist or vehicle.
Procedure. Rats were administered one dose (0.01 to 100 mg/kg, SC, as indicated) of a test peripheral antagonist (or vehicle) 10 mins prior to administration of DOPR (0.32 mg/kg, SC). After administration of DOPR, rats were immediately placed into a small open field for behavioral observation.
Statistical analysis. The data points shown in Table 4 are the mean±standard error of the mean (SEM). Statistical comparisons were performed between each peripheral antagonist treatment group and its respective vehicle treatment group using Dunnett's multiple comparison test. Analysis was performed using GraphPad Prism 6.

[2] = antagonist activity, Ca2+ flux, HEK293 cells, agonist at EC80
[3] = antagonist activity, Ca2+ flux, HEK293 cells, agonist at EC80, read-out: 5-HT2B IC50

Row | Structure (SMILES) | fraction unbound at 4 h, 2 μM (in vitro) | IC50 (5-HT2B receptor) | 5-HT2B IC50 (nM) (5-HT2B receptor; [2]) | 5-HT2B % Inh @ Max Dose (5-HT2B receptor; antagonist activity, Ca2+ flux) | Attenuation of the HTR to DOPR (significance vs. vehicle) [1] | Mean HTR (SEM) ([1]; antagonist 0.01 mg/kg SC) | Mean HTR (SEM) ([1]; antagonist 0.1 mg/kg SC) | Mean HTR (SEM) ([1]; antagonist 1 mg/kg SC) | Mean HTR (SEM) ([1]; antagonist 10 mg/kg SC) | fraction unbound at 4 h (in vitro) | IC50 (5-HT2B receptor; [3]) | Mean HTR (SEM) ([1]; antagonist 3 mg/kg SC) | Mean HTR (SEM) ([1]; antagonist 30 mg/kg SC) | Mean HTR (SEM) ([1]; antagonist 100 mg/kg SC)
1 | CC(CNC(=N)CNc1ccccc1)Oc1cccc(Cl)c1.O=CO (stereo not drawn) [BW501C67, N-(2-(3-chlorophenoxy)propyl)-2-(phenylamino)acetimidamide formate] | 0.003 | 21.6 nM | high potency antagonism | 99.74% | not statistically significant | 5.83 | 2.67 | 5.33 | 4.33 |  |  |  |  | 
2 | COc1cccc(C(=O)Nc2ccc(OCCN3CCOCC3)c(-c3ccnn3C)c2)c1 [temanogrel] |  |  |  |  |  |  |  |  |  | 0.108 |  |  |  | 
3 | CC(C)COc1ccc(CNC(=O)N(Cc2ccc(F)cc2)C2CCN(C(=O)CC[C@H](N)C(=O)O)CC2)cc1 [Compound 14a, (S)-2-amino-5-(4-(1-(4-fluorobenzyl)-3-(4-isobutoxybenzyl)ureido)piperidin-1-yl)-5-oxopentanoic acid] |  |  |  | −12.17% | statistically significant attenuation of the HTR | 2.50 | 2.00 | 2.17 | 1.83 | 0.078 | > 10000 nM |  |  | 
4 | COc1cccc(CCc2ccccc2OCC(CN(C)C)OC(=O)CCC(=O)O)c1 (stereo not drawn) [sarpogrelate] |  |  |  |  | statistically significant attenuation of the HTR |  |  | 2.33 | 1.33 | 0.054 |  | 1.83 | 1.33 | 0.33
5 | COc1cccc(OC(C)CNC(=N)Cc2cccc(C)c2)c1.O=C(O)C(F)(F)F (stereo not drawn) [xylamidine, N-(2-(3-methoxyphenoxy)propyl)-2-(m-tolyl) acetimidamide trifluoroacetate] |  |  | high potency antagonism | 99.68% | not statistically significant | 7.33 | 5.00 | 3.17 | 2.83 |  | 13.3 nM |  |  | 
